Values joined by “and” are separate entries in the source; they are usually repeats but may differ in a detail not shown here. Equal entries are not always repeated.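 Compound exposure: 48 hours, 5 concentrations, 96-well plates. Here, GI50 denotes the concentration required for 50% inhibition of growth. TGI: concentration producing complete growth inhibition.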 *1 amine or outer side, *2 acyl side, *3 side chain or, on linkers, in order; H or OH if unused. Where a SMILES comes first, the peptide text is derived from it. Bridges are numbered along the chain shown (N, C = ends). [ ]: non-standard residue; d: D form. The star is where a group is joined. Phe(3,5-F2) = N[C@@H](Cc1cc(F)cc(F)c1)C(=O)O; Pro(4R-Me) = C[C@H]1CN[C@H](C(=O)O)C1; aThr = C[C@H](O)[C@H](N)C(=O)O; Pip = O=C(O)[C@@H]1CCCCN1; X10 = Fc1cc(C2CC2)ccc1N*; Abu = CC[C@H](N)C(=O)O; CO = O=C([*:1])[*:2]
System: MDA-MB-468 breast
Assay: inhibition of tumour cell growth, NCI panel, 48 h

Going from `FC(F)(F)CNc1nccc(-c2cnn3ncccc23)n1` to `Oc1ccc(CCl)c2cccnc12`, the GI50 falls from 8.49 µM to 3.39 µM (2.5-fold).

Compared with `Cc1nc2ccccc2c(/C=C/c2ccc(Cl)cc2)c1C(=O)/C=C/c1ccc(F)cc1`, `O=C(CNc1c(Cl)cccc1Cl)Nc1ccc(-c2nc3ccccc3s2)cc1` is 47-fold lower in GI50: 1.8 µM for the first, 0.0381 µM for the second.

Compared with `CCCCCc1c(C)[nH]c(/C=C2\N=C(c3ccc[nH]3)C=C2Oc2ccccc2)c1C`, `O=c1[nH]c2ccc(N=Cc3c(O)[nH]c4ccccc34)cc2[nH]1` is higher in GI50: 0.0104 µM for the first, > 25 µM for the second.

Going from `COc1cnc2c(c1)C(=O)c1c-2n(CCCBr)c(=O)c2cc([N+](=O)[O-])ccc12` to `O=[N+]([O-])c1ccc2scc3c4ccccc4nc-3c2c1`, the GI50 rises from 0.291 µM to 0.919 µM (3.2-fold).

First: COc1cc(OC)cc(C2C(C#N)=C(N)Oc3c2ccc2ccc(O)cc32)c1 (stereo not drawn)
Second: COc1ccc(C(O)c2cc3c(N)c(C(=O)Nc4cccc(OC)c4)sc3nc2C)cc1 (stereo not drawn)
The GI50 of the first is lower: < 0.01 µM for the first, 1.23 µM for the second.

Compared with `COc1cc(C(C)c2ccc3c(ccn3C)c2)cc(OC)c1OC` (stereo not drawn), `CCN(CC)c1ccc2c(cc1=O)[C@@H](NC(C)=O)CCc1cc(OC)c(OC)c(OC)c1-2` is higher in GI50: < 0.01 µM for the first, 0.13 µM for the second.

Going from `CCn1cc(C(=O)N/N=C/c2ccc(Br)cc2)c(=O)c2cc(F)c(N3CCNC(C)C3)c(F)c21` (stereo not drawn) to `CC(=O)Nc1ccc2c(C3=C(c4cn(C)c5ccccc45)C(=O)NC3=O)cn(C)c2c1`, the GI50 falls from 1.59 µM to 0.988 µM (1.6-fold).

Compared with `CC[C@@H]1NC(=O)[C@@H]2CCCCN2C(=O)[C@@H]2CCCN2C(=O)[C@@H](NC(=O)[C@H](Cc2cc(F)cc(F)c2)NC(=O)Nc2ccc(C3CC3)cc2F)[C@H](C)OC(=O)[C@@H]2C[C@@H](C)CN2C1=O` ({X10-CO}-[Phe(3,5-F2)][aThr]P[Pip][Abu][Pro(4R-Me)]; ester 2-C), `Cc1cc(Nc2ncc(F)c(N[C@H]3[C@@H](C(N)=O)[C@@H]4C=C[C@H]3C4)n2)ccc1N1CCN(C)CC1` is lower in GI50: 0.0267 µM for the first, < 0.0161 µM for the second.

First: ClC1=C(Cl)C(Cl)=C(Cl)C1=Cc1ccccc1
Second: O=C(Nc1ccc(Oc2cccc(Cl)c2)c(Cl)c1)c1cnccn1
The GI50 of the first is 5.1-fold higher: 1.31 µM for the first, 0.255 µM for the second.

First: O=C(O)c1sccc1O
Second: Nc1c(C(=O)Nc2ccccn2)sc2nc3c(cc12)CCCCC3
The GI50 of the first is 31-fold higher: 32.9 µM for the first, 1.05 µM for the second.

Compared with `CC(C)=NNc1ncnc2c1ncn2C1OC(CO)C(O)C1O` (stereo not drawn), `COc1cccc2cc(N(C)c3ncnc4ccccc34)ccc12` is lower in GI50: 0.499 µM for the first, < 0.01 µM for the second.

Going from `O=C1Nc2ccccc2C1(c1c[nH]c2ccccc12)c1c[nH]c2ccccc12` to `Cn1cc(C2=C(c3c4n(c5ccccc35)CCN(C(N)=S)C4)C(=O)NC2=O)c2ccccc21`, the GI50 rises from 2.08 µM to 3.35 µM (1.6-fold).

Going from `O=C(NC1CCC(Br)CC1)C1CCCC(S(=O)(=O)NC2CCCCC2)C1` (stereo not drawn) to `c1ccc(CSc2nnc3c4c5c(sc4nc(-c4cccnc4)n23)CCCCCC5)cc1`, the GI50 falls from 6.44 µM to 0.568 µM (11-fold).

Going from `CC/C=C\C/C=C\C[C@H]1C/C=C2/C(=O)C=C[C@@H]2C/C=C\CCC(=O)O1` to `COc1ccc(F)cc1/C=C/C(=O)/C=C(/C=C/c1cc(F)ccc1OC)OB(F)F`, the GI50 rises from 0.838 µM to 1.62 µM (1.9-fold).

Compared with `Cc1ccc(C)c(COc2cc(NC(=O)c3ccc4c(c3)OCO4)ccc2N(C)S(C)(=O)=O)c1`, `COc1cc(-c2nn(-c3ccc(NC(=O)NCCCNC(=O)c4ccccc4)cc3)cc2-c2ccncc2)ccc1Cl` is 2.5-fold higher in GI50: 0.114 µM for the first, 0.284 µM for the second.

`N=C1S/C(=C/c2ccc(-c3ccc4c(c3)C(=O)NC4=O)o2)C(=O)N1c1ccc(Br)cc1` was tested, and the GI50 was 4.57 µM.

`FC(F)(F)CNc1nccc(-c2cnn3ncccc23)n1` and `Oc1ccc(CCl)c2cccnc12` cannot be ordered by TGI: > 25 µM for the first, 54.3 µM for the second.

First: Cc1nc2ccccc2c(/C=C/c2ccc(Cl)cc2)c1C(=O)/C=C/c1ccc(F)cc1
Second: O=C(CNc1c(Cl)cccc1Cl)Nc1ccc(-c2nc3ccccc3s2)cc1
The TGI of the first is 17-fold higher: 3.73 µM for the first, 0.219 µM for the second.

Going from `CCCCCc1c(C)[nH]c(/C=C2\N=C(c3ccc[nH]3)C=C2Oc2ccccc2)c1C` to `O=c1[nH]c2ccc(N=Cc3c(O)[nH]c4ccccc34)cc2[nH]1`, the TGI rises from 0.301 µM to > 25 µM.

Going from `COc1cnc2c(c1)C(=O)c1c-2n(CCCBr)c(=O)c2cc([N+](=O)[O-])ccc12` to `O=[N+]([O-])c1ccc2scc3c4ccccc4nc-3c2c1`, the TGI rises from 0.955 µM to 2.25 µM (2.4-fold).

Compared with `COc1cc(OC)cc(C2C(C#N)=C(N)Oc3c2ccc2ccc(O)cc32)c1` (stereo not drawn), `COc1ccc(C(O)c2cc3c(N)c(C(=O)Nc4cccc(OC)c4)sc3nc2C)cc1` (stereo not drawn) is 4.7-fold higher in TGI: 0.98 µM for the first, 4.61 µM for the second.

Compared with `COc1cc(C(C)c2ccc3c(ccn3C)c2)cc(OC)c1OC` (stereo not drawn), `COc1cccc2cc(N(C)c3ncnc4ccccc34)ccc12` is 13-fold lower in TGI: 62.1 µM for the first, 4.74 µM for the second.

First: CCn1cc(C(=O)N/N=C/c2ccc(Br)cc2)c(=O)c2cc(F)c(N3CCNC(C)C3)c(F)c21 (stereo not drawn)
Second: CC(=O)Nc1ccc2c(C3=C(c4cn(C)c5ccccc45)C(=O)NC3=O)cn(C)c2c1
The TGI of the first is lower: 3.09 µM for the first, > 7.22 µM for the second.

Compared with `CC[C@@H]1NC(=O)[C@@H]2CCCCN2C(=O)[C@@H]2CCCN2C(=O)[C@@H](NC(=O)[C@H](Cc2cc(F)cc(F)c2)NC(=O)Nc2ccc(C3CC3)cc2F)[C@H](C)OC(=O)[C@@H]2C[C@@H](C)CN2C1=O` ({X10-CO}-[Phe(3,5-F2)][aThr]P[Pip][Abu][Pro(4R-Me)]; ester 2-C), `Cc1cc(Nc2ncc(F)c(N[C@H]3[C@@H](C(N)=O)[C@@H]4C=C[C@H]3C4)n2)ccc1N1CCN(C)CC1` is 8.5-fold higher in TGI: 0.149 µM for the first, 1.26 µM for the second.

Compared with `ClC1=C(Cl)C(Cl)=C(Cl)C1=Cc1ccccc1`, `O=C(Nc1ccc(Oc2cccc(Cl)c2)c(Cl)c1)c1cnccn1` is higher in TGI: 2.69 µM for the first, > 15.8 µM for the second.

`O=C(O)c1sccc1O` and `Nc1c(C(=O)Nc2ccccn2)sc2nc3c(cc12)CCCCC3` cannot be ordered by TGI: > 100 µM for the first, > 50 µM for the second.

Going from `CC(C)=NNc1ncnc2c1ncn2C1OC(CO)C(O)C1O` (stereo not drawn) to `Cc1ccc(C)c(COc2cc(NC(=O)c3ccc4c(c3)OCO4)ccc2N(C)S(C)(=O)=O)c1`, the TGI falls from 3.9 µM to 0.44 µM (8.9-fold).

First: O=C1Nc2ccccc2C1(c1c[nH]c2ccccc12)c1c[nH]c2ccccc12
Second: Cn1cc(C2=C(c3c4n(c5ccccc35)CCN(C(N)=S)C4)C(=O)NC2=O)c2ccccc21
The TGI of the first is lower: 4.56 µM for the first, > 21 µM for the second.

Going from `O=C(NC1CCC(Br)CC1)C1CCCC(S(=O)(=O)NC2CCCCC2)C1` (stereo not drawn) to `c1ccc(CSc2nnc3c4c5c(sc4nc(-c4cccnc4)n23)CCCCCC5)cc1`, the TGI falls from 24.9 µM to 4.12 µM (6-fold).

Going from `CC/C=C\C/C=C\C[C@H]1C/C=C2/C(=O)C=C[C@@H]2C/C=C\CCC(=O)O1` to `COc1ccc(F)cc1/C=C/C(=O)/C=C(/C=C/c1cc(F)ccc1OC)OB(F)F`, the TGI rises from 2.53 µM to 4.37 µM (1.7-fold).

Going from `COc1cc(-c2nn(-c3ccc(NC(=O)NCCCNC(=O)c4ccccc4)cc3)cc2-c2ccncc2)ccc1Cl` to `N=C1S/C(=C/c2ccc(-c3ccc4c(c3)C(=O)NC4=O)o2)C(=O)N1c1ccc(Br)cc1`, the TGI rises from 0.827 µM to > 100 µM.

In the case of `COCCNCCc1cccc(Nc2ncc3c(n2)-c2ccccc2C(c2ccccc2F)C3)c1` (stereo not drawn), the GI50 is reported as 1.9 µM and 2 µM.
In the case of `FC(F)(F)c1ccc(CNc2ccc(Cc3c[nH]c4ncc(Cl)cc34)cn2)cn1`, the GI50 is reported as 5.1 µM and 3.77 µM.
With `C[C@]12CC[C@H](OC3OC(O)C(O)C(O)C3O)C=C1CCC1C2CC[C@]2(C)[C@@H](c3ccc(=O)oc3)CC[C@]12O` (stereo partly drawn) the GI50 was 0.00379 µM and 0.00512 µM.

In the case of `COCCNCCc1cccc(Nc2ncc3c(n2)-c2ccccc2C(c2ccccc2F)C3)c1` (stereo not drawn), the TGI is reported as 3.7 µM and 3.86 µM.
`CCC[C@H](N[C@H]1CCc2cc(F)cc(F)c2C1)C(=O)Nc1cn(C(C)(C)CNCC(C)(C)C)cn1` was tested, and the TGI was 74.6 µM and 21.1 µM.
For `FC(F)(F)c1ccc(CNc2ccc(Cc3c[nH]c4ncc(Cl)cc34)cn2)cn1`, the TGI was 34.4 µM and > 10 µM.
For `C[C@]12CC[C@H](OC3OC(O)C(O)C(O)C3O)C=C1CCC1C2CC[C@]2(C)[C@@H](c3ccc(=O)oc3)CC[C@]12O` (stereo partly drawn), the TGI was 0.0202 µM and 0.0145 µM.

— PubChem BioAssay (NCI)
